Measurements from patent publication US10183949B2, “Pyrimidinone derivative having autotaxin-inhibitory activity” (The University of Tokyo, priority 2014, dated 2019).

target: T1, Human autotaxin enzyme (Homo sapiens, UniProt Q13822); experiment: Evaluation of autotaxin inhibitor, 18:0 Lyso PC / choline assay (Test Example 2); format: biochemical; settings: autotaxin inhibition, IC50 class; read-out: Inhibitor activity
T1 construct: purchased R&D System
Method in brief: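 Inhibition derived from concentration-dependent curves, scaled between no-compound (0%) and no-enzyme (100%) wells. Choline generated from 18:0 Lyso PC (200 μM stock) by human enzyme over 2 h at room temperature (Tris-HCl pH 7.5, NaCl, MgCl2, Triton X-100) read as resorufin fluorescence, 531/598 nm, after choline oxidase-peroxidase coupling.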

Structure (SMILES)	IC50 [nM]
CSc1nc(-c2ccc(Cl)cc2NC(C)=O)cc(=O)n1CC(=O)NC(C)(C)C [Compound I-0251]	10 to 100
O=C(O)Cn1c(CCCC(F)(F)F)nc(-c2ccc(C(F)(F)F)cc2)cc1=O [Compound I-0255]	≥ 1000
CSc1nc(-c2ccc(Cl)cc2NC(C)=O)cc(=O)n1CC(=O)NC(C)(C)CO [Compound I-0252]	10 to 100
CC(=O)Nc1cc(Cl)ccc1-c1cc(=O)n(CC(=O)NC2(C#N)CC2)c(C)n1 [Compound I-0248]	10 to 100

same assay, conditions: human autotaxin enzyme, 18:0 Lyso PC substrate, choline assay, room temperature 2 hours; read-out: Inhibitor activity (IC50)

Structure (SMILES)	IC50 [nM]
N#CC1(NC(=O)Cn2c(CCCC(F)(F)F)nc(N3CCC(Cc4ccccc4)C3)cc2=O)CC1 (stereo not drawn) [Compound I-0219]	100 to 1000
N#CCCNC(=O)Cn1c(CCCC(F)(F)F)nc(-c2ccc(Cl)cc2)cc1=O [Compound I-0137]	10 to 100
COC(=O)c1ccc(Cn2c(CCCC(F)(F)F)nc(-c3ccc(Cl)cc3)cc2=O)o1 [Compound I-0291]	10 to 100
Cc1nc(-c2ccc(Cl)cc2NC(=O)C2CC2)cc(=O)n1CC(=O)NC(C)C [Compound I-0391]	10 to 100
CCCCCc1nc(-c2ccc(Cl)cc2)cc(=O)n1CC(=O)N[C@@H](CO)Cc1ccccc1 [Compound I-0092]	100 to 1000
CC(C)(C)OC(=O)Cn1c(CCCC(F)(F)F)nc(-c2ccc(Cl)cc2C=O)cc1=O [Compound I-0296]	100 to 1000
CCCCCc1nc(-c2ccc(Cl)cc2)cc(=O)n1CC(=O)N1CCCC1C(=O)O (stereo not drawn) [Compound I-0068]	≥ 1000
NS(=O)(=O)CCNC(=O)Cn1c(CCCC(F)(F)F)nc(-c2ccc(Cl)cc2)cc1=O [Compound I-0133]	10 to 100
CCCCCc1nc(-c2ccc(Cl)cc2)cc(=O)n1CC(=O)N[C@H]1C[C@H](C(=O)O)C1 [Compound I-0071]	< 10
COC(=O)Nc1cc(Cl)ccc1-c1cc(=O)n(CC(=O)NC2(C#N)CC2)c(C)n1 [Compound I-0403]	10 to 100
O=C(Cn1c(CCCC(F)(F)F)nc(-c2ccc(Cl)cc2)cc1=O)NCCN(CCO)CCO [Compound I-0146]	100 to 1000
CNC(=O)c1cccc(Cn2c(CCCC(F)(F)F)nc(-c3ccc(Cl)cc3)cc2=O)c1 [Compound I-0180]	100 to 1000
COC(=O)Cn1c(CCCC(F)(F)F)nc(-c2ccc(Cl)cc2)cc1=O [Compound I-0109]	10 to 100
CCCCCc1nc(-c2ccc(Cl)cc2)cc(=O)n1CC(=O)N1CCC(C(=O)O)CC1 [Compound I-0042]	< 10
Cc1nc(-c2ccc(Cl)cc2NC(=O)C2CC2)cc(=O)n1CC(=O)NC1COC1 [Compound I-0404]	10 to 100
COC(=O)Nc1cc(Cl)ccc1-c1cc(=O)n(CC(=O)NCc2c[nH]nn2)c(C)n1 [Compound I-0421]	< 10
CC(C)(C)C(=O)Nc1cc(Cl)ccc1-c1cc(=O)n(Cc2cccc(C(=O)NC(CO)CO)c2)cn1 [Compound I-0486]	100 to 1000
COC(=O)Nc1cc(Cl)ccc1-c1cc(=O)n(CC(=O)NC2(C)COC2)c(C)n1 [Compound I-0410]	< 10
CCCCCc1nc(-c2ccc(Cl)cc2)cc(=O)n1CC(=O)NC(CC(=O)O)c1ccccc1 (stereo not drawn) [Compound I-0061]	10 to 100
CCCCCc1nc(-c2ccc(Cl)cc2)[nH]c(=O)c1Cc1ccc(C(=O)O)cc1 [Compound I-0002]	100 to 1000
CCOC(=O)c1noc(Cn2c(CCCC(F)(F)F)nc(-c3ccc(Cl)cc3)cc2=O)n1 [Compound I-0311]	100 to 1000
O=C(N[C@H]1CC[C@H](O)CC1)c1cccc(Cn2c(CCCC(F)(F)F)nc(-c3ccc(Cl)cc3)cc2=O)c1 [Compound I-0174]	100 to 1000
CCCCCc1nc(-c2ccc(Cl)cc2)cc(=O)n1CC(=O)NCC1(CO)CC1 [Compound I-0033]	10 to 100

Structure (SMILES)	IC50 [nM]
CS(=O)(=O)N1CCN(C(=O)Cn2c(CCCC(F)(F)F)nc(-c3ccc(C(F)(F)F)cc3)cc2=O)CC1 [Compound I-0359]	10 to 100
CNC(=O)CN1CCC(NC(=O)Cn2c(CCCC(F)(F)F)nc(-c3ccc(C(F)(F)F)cc3)cc2=O)CC1 [Compound I-0365]	100 to 1000
N#CC1(NC(=O)Cn2c(CCCC(F)(F)F)nc(C3=CCC(C(F)(F)F)CC3)cc2=O)CC1 (stereo not drawn) [Compound I-0232]	< 10
COC(=O)Nc1cc(C#N)ccc1-c1cc(=O)n(CC(=O)NCC(C)(C)O)c(C)n1 [Compound I-0399]	10 to 100
O=C(NCC1(CO)CC1)c1cccc(Cn2c(CCCC(F)(F)F)nc(-c3ccc(Cl)cc3)cc2=O)c1 [Compound I-0175]	100 to 1000
Cc1nc(-c2ccc(Cl)cc2NC(=O)C2CC2)cc(=O)n1CC(=O)NCC(N)=O [Compound I-0406]	10 to 100
Cc1nc(-c2ccc(Cl)cc2NC(=O)C2CC2)cc(=O)n1CC(=O)NC(C)(C)C(F)(F)F [Compound I-0462]	10 to 100
CCCCCc1nc(-c2ccc(Cl)cc2)cc(=O)n1CC(=O)NCCc1ccccc1 [Compound I-0103]	10 to 100
O=C(c1cccc(Cn2c(CCCC(F)(F)F)nc(-c3ccc(Cl)cc3)cc2=O)c1)N1CCOCC1 [Compound I-0160]	10 to 100
CN(CC#N)C(=O)c1cccc(Cn2c(CCCC(F)(F)F)nc(-c3ccc(Cl)cc3)cc2=O)c1 [Compound I-0155]	100 to 1000
CCCCCc1nc(-c2ccc(Cl)cc2)cc(=O)n1CC(=O)N1CCC(C(=O)O)C1 (stereo not drawn) [Compound I-0066]	≥ 1000
Cc1nc(-c2ccc(Cl)cc2NC(=O)C2CC2)cc(=O)n1CC(=O)N1CC(C)(O)C1 [Compound I-0420]	100 to 1000
Cc1nc(-c2ccc(Cl)cc2NC(=O)C2CC2)cc(=O)n1CC(=O)NC1(c2ccc(F)cc2)COC1 [Compound I-0484]	10 to 100
Cc1nc(-c2ccc(Cl)cc2NC(=O)C2CC2)cc(=O)n1CC(=O)N1CCC(CC(=O)OC(C)(C)C)CC1 [Compound I-0496]	10 to 100
CCCCCc1nc(-c2ccc(Cl)cc2)cc(=O)n1CC(=O)NC1CN2CCC1CC2 (stereo not drawn) [Compound I-0104]	100 to 1000
COC(=O)Nc1cc(Cl)ccc1-c1cc(=O)n(CC(=O)NC(C)(C)C(F)(F)F)c(C)n1 [Compound I-0457]	< 10
COC(=O)Nc1cc(C#N)ccc1-c1cc(=O)n(CC(=O)N(C)C(C)(C)C)c(C)n1 [Compound I-0374]	10 to 100
O=C(O)c1nc(Cn2c(CCCC(F)(F)F)nc(-c3ccc(Cl)cc3)cc2=O)cs1 [Compound I-0294]	10 to 100
COC(=O)Nc1cc(Cl)ccc1-c1cc(=O)n(CC(=O)NC2(C(F)(F)F)CC2)c(C)n1 [Compound I-0455]	10 to 100
CCCCCc1nc(-c2ccc(Cl)cc2)cc(=O)n1CC(=O)NCC(C)(C)O [Compound I-0098]	10 to 100
CCCCCc1nc(-c2ccc(Cl)cc2)cc(=O)n1CC(=O)NC(C(=O)O)c1ccc(O)cc1 (stereo not drawn) [Compound I-0060]	10 to 100
CC(=O)Nc1cc(Cl)ccc1-c1cc(=O)n(Cc2cccc(C(=O)O)c2)c(C)n1 [Compound I-0267]	< 10
O=C(Cn1c(CCCC(F)(F)F)nc(-c2ccc(Cl)cc2)cc1=O)N(CCO)CCO [Compound I-0117]	10 to 100

Structure (SMILES)	IC50 [nM]
N#CCNC(=O)c1cccc(Cn2c(CCCC(F)(F)F)nc(-c3ccc(Cl)cc3)cc2=O)c1 [Compound I-0164]	100 to 1000
N#CC1(NC(=O)Cn2c(CCCC(F)(F)F)nc(N3CCC(C(F)(F)F)CC3)cc2=O)CC1 [Compound I-0217]	10 to 100
N#CCNc1nc(-c2ccc(C#N)cc2)cc(=O)n1Cc1ccccc1 [Compound I-0106]	≥ 1000
NC(=O)CNC(=O)c1cccc(Cn2c(CCCC(F)(F)F)nc(-c3ccc(Cl)cc3)cc2=O)c1 [Compound I-0168]	100 to 1000
O=C(O)Cn1c(CCCC(F)(F)F)nc(-c2ccc(Cl)cc2)cc1=O [Compound I-0110]	≥ 1000
N#CC1(NC(=O)Cn2c(CCCC(F)(F)F)nc(-c3ccc(C(F)(F)F)cc3)cc2=O)CC1 [Compound I-0225]	< 10
Cc1nc(-c2ccc(Cl)cc2NC(=O)C2CC2)cc(=O)n1CC(=O)NCc1cc(=O)[nH]o1 [Compound I-0452]	10 to 100
CC(O)CNC(=O)Cn1c(CCCC(F)(F)F)nc(-c2ccc(Cl)cc2)cc1=O (stereo not drawn) [Compound I-0119]	10 to 100
N#CC1(NC(=O)Cn2c(CCCC(F)(F)F)nc(-c3ccc(Cl)cc3)cc2=O)CC1 [Compound I-0123]	10 to 100
CCNS(=O)(=O)CCNC(=O)Cn1c(CCCC(F)(F)F)nc(-c2ccc(Cl)cc2)cc1=O [Compound I-0145]	10 to 100
COC(=O)Nc1cc(C#N)ccc1-c1cc(=O)n(CC(=O)NC2(C)COC2)c(C)n1 [Compound I-0397]	10 to 100
CC(C)(C)C(=O)Nc1cc(Cl)ccc1-c1cc(=O)n(CC(=O)NCC(N)=O)cn1 [Compound I-0409]	100 to 1000
Cc1nc(-c2ccc(F)cc2NC(=O)C(C)(C)C)cc(=O)n1Cc1cccc(C(=O)O)c1 [Compound I-0278]	10 to 100
O=C(Cn1c(CCCC(F)(F)F)nc(-c2ccc(Cl)cc2)cc1=O)N1CCN(CCO)CC1 [Compound I-0131]	10 to 100
CCCCCc1nc(-c2ccc(Cl)cc2)cc(=O)n1CC(=O)NC1CCS(=O)(=O)C1 (stereo not drawn) [Compound I-0081]	10 to 100
CC1(O)CN(C(=O)Cn2c(CCCC(F)(F)F)nc(-c3ccc(C(F)(F)F)cc3)cc2=O)C1 [Compound I-0320]	100 to 1000
CC(C)(C)OC(=O)Cn1c(CCC(F)(F)F)nc(-c2ccc(Cl)cc2NC(=O)C(C)(C)C)cc1=O [Compound I-0341]	100 to 1000
CCCCCc1nc(-c2ccc(Cl)cc2)cc(=O)n1CC(=O)N[C@@H]1CCN(C(C)=O)C1 [Compound I-0097]	100 to 1000
N#CC1(NC(=O)Cn2c(CCC(F)(F)F)nc(-c3ccc(Cl)cc3)cc2=O)CC1 [Compound I-0207]	≥ 1000
CNC(=O)CNC(=O)c1cccc(Cn2c(CCCC(F)(F)F)nc(-c3ccc(Cl)cc3)cc2=O)c1 [Compound I-0182]	100 to 1000
CCOCCc1nc(-c2ccc(Cl)cc2)cc(=O)n1CC(=O)NCC1(CO)CC1 [Compound I-0223]	100 to 1000
CCCCCc1nc(-c2ccc(Cl)cc2)cc(=O)n1Cc1cccc(C(=O)OC)c1 [Compound I-0074]	≥ 1000
